Data: patent US20230322854A1, “HUNTINGTIN-RELATED PEPTIDE AGENTS AND USES THEREOF” (UNIVERSITY OF SOUTHERN CALIFORNIA, priority 2020, published 2023)
“Also recorded” adds a separate entry of the source. No end group written: not given here. spin label = not defined here

Key:
[1] = tested on: unbundled Huntingtin fibrils (exon 1); experiment: Radioactive binding assay, immobilized unbundled Huntingtin fibrils; conditions: for effect on HD8 binding affinity of constant region / N-terminal mutation: versus HD8 with GSGTSGSS, HD8 MA versus HD8 MM; for effect on HD1 binding of constant region / N-terminal mutation: HD 1A versus HD1 with GSGTSGSS, HD1 MA versus HD1 MM; for effect on binding of mutating the HD8 residue to Alanine: Alanine scan of HD8; for binding to Htt-fibrils: radiolabeled mRNA-peptide fusions, fibrils immobilized on beads; for effect on binding of mutating the HD1 residue to Alanine: Alanine scan of HD1
Text: Messenger RNA (mRNA) display (described in (Roberts, et al. (1997) Proc Natl Acad Sci USA 94: 12297-302, Takahashi, et al. (2003) Trends Biochem Sci 28: 159-65); FIG. 2) was used to engineer peptide agents that bind to unbundled fibrils of Huntingtin exon 1. To do this, unbundled Huntingtin fibrils were generated by mixing biotinylated Huntingtin protein (exon 1; FIG. 1) with non-biotinylated exon 1 Huntingtin protein at a ratio of 1:20 (˜5% biotinylated Huntingtin). These fibrils were then immobilized on Neutravidin agarose (Thermo Fisher) or Streptavidin ultralink beads (Thermo Fisher) via the attached biotin. A MX9 (where X is any of the 20 natural amino acids) mRNA display library was generated using published procedures (Takahashi, et al. (2009) Methods Mol Biol 535: 293-314) and incubated with immobilized fibrils. Non-binding sequences were washed away and the remaining fibril binding peptides were amplified via RT-PCR. This process was repeated seven times.
(§1) The binding of the peptide library was determined using a radioactive binding assay. In this assay, peptides were radiolabeled by translating the mRNA coding for these peptides in the presence of ^35S-methionine using rabbit reticulocyte lysate (Jackson, et al. (1983) Methods Enzymol 96: 50-74). These peptides were translated in an mRNA display format and were thus linked to their encoding mRNA, as described above. After purification by dT chromatography, the radiolabeled peptides were incubated with Huntingtin fibrils immobilized on Neutravidin Agarose or Streptavidin Ultralink beads. The beads were then filtered through a Spin X column (Corning) to separate the supernatant and beads, then washed to remove unbound sequences. The supernatant, washes, and beads were all counted in a scintillation counter to determine the counts in each sample. The percent bound was determined by dividing the counts on the beads with the total counts (beads+washes+supernatant).

Httex1 aggregates = experiment: Labeling of Httex1 aggregates in retinal sections of Huntington mouse models; conditions: R6/1 (34 weeks) and zQ175KI (48 weeks) mice, 2 micromolar
Text: FIG. 28 presents fluorescence microscopy pictures showing that HD8-Alexa488 labels aggregated Httex1 in retina sections from two different mouse model of Huntington disease. Left panels show nuclear stain that labels all cells. Right panels show signal from HD8-Alexa488. Top panels show a retinal section from a R6/1 mouse, and bottom panels show a retinal section from a zQ175KI mouse.
Left panels show nuclear stain that labels all cells (A1 and B1), and right panels show signal from HD8-SP10-HD1-fluorescein (A2 and B2). Top panels are higher magnification that show the ganglion cell layer of the retina, and the bottom panels are lower magnification micrographs that show all retinal layers. Labeling of all retinal layers is seen when the HD peptides are dimerized. The phase contrast panel to the left of the bottom panels show the corresponding retinal layers: ONL: outer nuclear layer that contain rod and cone photoreceptor cells, INL: inner nuclear layer that contains cell bodies from horizontal cells, bipolar cells, amacrine cells and Müller cells, GCL: ganglion cell layer.
To see whether HD peptides bind Httex1 aggregates formed in vivo, we used tissues from two different Huntington mouse models, R6/1 (34 weeks old) and zQ175KI (48 weeks). FIG. 28 show retinal sections from these mice incubated with 2 micromolar of HD8 conjugated with Alexa488 at its carboxyl terminus.
HD8-HD1-fluorescein (0.1 micromolar) was also used on retinal sections from 34-week-old R6/1 mice (FIG. 29). […] In addition, weaker signal from intranuclear aggregates was also observed. Further, the signal can now be detected in all layers of the retina where the nuclei reside.

[2] = Radioactive binding assay, beads without target (no target control); conditions: radiolabeled peptide
Experimental: as §1

[3] = target: unbundled fibrils of Huntingtin exon 1 (about 5% biotinylated), immobilized on beads (UniProt P42858); experiment: EPR, spin-labeled peptide titrated onto 15 µM fibrils
[4] = target: unbundled fibrils of Huntingtin exon 1 (about 5% biotinylated), immobilized on beads (UniProt P42858); experiment: alanine scan of the constant region, radioactive binding assay

## MWQMMNGMSQA [HD 8A]
[1]
  effect on HD8 binding affinity of constant region / N-terminal mutation: modest loss in binding affinity

## HD1 MA: HD1 with additional Met at the N-terminus, Met1 changed to Ala (MADWWPMWPSLGSGTSGSS)
[1]
  effect on HD1 binding of constant region / N-terminal mutation: significantly decreases binding

## MWQMMNGASQ [M8]
[1]
  effect on binding of mutating the HD8 residue to Alanine: modest losses

## HD8-Alexa488: HD8 conjugated with Alexa488 at its carboxyl terminus (MWQMMNGMSQ-Alexa488)
Httex1 aggregates
  labeling of retinal sections: Specific staining was observed in the ganglion cell layer of the retina in both mouse models
Httex1 aggregates; listed as HD8 conjugated with Alexa488
  labeling of retinal sections: observed mostly in the ganglion cell layer

## MRWSMSYSWA (MRWSMSYSWAGSGTSGSS) [HD3]
[2]
  binding to beads without target: little to no binding to beads without target
[1]
  binding to Htt-fibrils: demonstrated binding to Htt-fibrils

## MFFVLSWTPL [HD5]
[2]
  binding to beads without target: high non-specific binding to beads without target

## MDWWPMWASL [P8]
[1]
  effect on binding of mutating the HD1 residue to Alanine: decrease binding

## HD8SP10-HD1: dimeric peptide agent of HD8 and HD1 joined by a 10 amino acid spacer (MWQMMNGMSQGSGTSGSSGSMDWWPMWPSLGSGTSGSS)
[1]; 1 M, 2 M or 3 M urea versus buffer only (TBST)
  binding in the presence of urea: decreased binding that is approximately proportional to the amount of urea added

## MDWWPLWPSL (MDWWPLWPSLGSGTSGSS) [HD1 M6L]
[1]; HD1 Met mutants versus HD1
  effect on binding of Met substitution in HD1: no effect on binding

## MAWQMMNGMSQ GSGTSGSS (MAWQMMNGMSQGSGTSGSS) [HD8 MA]
[1]
  effect on HD8 binding affinity of constant region / N-terminal mutation: decrease in binding

## MQMWTMWEPW (MQMWTMWEPWGSGTSGSS) [HD 6]
[2]
  binding to beads without target: little to no binding to beads without target
[1]
  binding to Htt-fibrils: good binding to Htt-fibrils

## MWQMMNAMSQ [G7]
[1]
  effect on binding of mutating the HD8 residue to Alanine: modest losses

## MWQMMNGMSQG [HD 8G]
[1]
  effect on HD8 binding affinity of constant region / N-terminal mutation: loss could be recovered

## MFMMMWMSLT (MFMMMWMSLTGSGTSGSS) [HD4]
[2]
  binding to beads without target: little to no binding to beads without target
[1]
  binding to Htt-fibrils: demonstrated binding to Htt-fibrils

## MDWWPAWPSL [M6]
[1]
  effect on binding of mutating the HD1 residue to Alanine: decrease binding; also recorded: reduced but did not abolish

## MWAMMNGMSQ [Q3]
[1]
  effect on binding of mutating the HD8 residue to Alanine: large losses of binding

## MAQMMNGMSQ [W2]
[1]
  effect on binding of mutating the HD8 residue to Alanine: modest losses

## MWMIQMPGYQ (MWMIQMPGYQGSGTSGSS) [HD2]
[2]
  binding to beads without target: little to no binding to beads without target
[1]
  binding to Htt-fibrils: demonstrated binding to Htt-fibrils

## MDAWPMWPSL [W3]
[1]
  effect on binding of mutating the HD1 residue to Alanine: decrease binding

## MDLWPMWESW (MDLWPMWESWGSGTSGSS) [HD7]
[2]
  binding to beads without target: little to no binding to beads without target
[1]
  binding to Htt-fibrils: good binding to Htt-fibrils

## MDWWAMWPSL [P5]
[1]
  effect on binding of mutating the HD1 residue to Alanine: decrease binding

## MWQMMNGMSQGS [HD 8GS]
[1]
  effect on HD8 binding affinity of constant region / N-terminal mutation: loss could be recovered

## HD 1A: HD1 with substitution of the GSGTSGSS constant region with Ala (MDWWPMWPSLA)
[1]
  effect on HD1 binding of constant region / N-terminal mutation: little effect on binding affinity

## MWQMANGMSQ [M5]
[1]
  effect on binding of mutating the HD8 residue to Alanine: modest losses

## MDWWPMWPSA [L10]
[1]
  effect on binding of mutating the HD1 residue to Alanine: decrease binding

## HD1-SP10-HD8-SP10-HD1: trimeric peptide agent of HD1, HD8, HD1 with spacers (MDWWPMWPSLGSGTSGSSGSMWQMMNGMSQGSGTSGSSGSMDWWPMWPSL)
[1]; 0.7 μg protein (about 50 pmol as monomer)
  binding under lower fibril conditions: better performing

B1: spin-labeled synthetic HD1 (peptide)
peptide: MDWWPMWPSLC(spin label)
modifications: reading uncertain
[3]
  stoichiometry of the complex (ratio at saturation) (ratio (printed 1:3)): 0.33

B2: spin-labeled synthetic HD8 (peptide)
peptide: MWQMMNGMSQC(spin label)
modifications: reading uncertain
[3]
  stoichiometry of the complex (ratio) (ratio (printed 1:1)): 1

B3: HD8-SP10-HD1-SP10-HD8-SP10-HD1: tetrameric HD8/HD1 molecule with spacers (peptide)
peptide: MWQMMNGMSQGSGTSGSSGSMDWWPMWPSLGSGTSGSSGSMWQMMNGMSQGSGTSGSSGSMDWWPMWPSL
[1]; serum diluted 1:2, 1:5 or 1:10 with buffer (TBST)
  binding to Htt-fibrils in the presence of serum: serum can partially inhibit binding

B4: HD1 G13A (peptide)
peptide: MDWWPMWPSLGSATSGSS
modifications: also: 35S-methionine
[4]
  percent decrease in HD1 binding: 20%

B5: HD1 S12A (peptide)
peptide: MDWWPMWPSLGAGTSGSS
modifications: also: 35S-methionine
[4]
  percent decrease in HD1 binding: 20%

B6: HD1 G11A (peptide)
peptide: MDWWPMWPSLASGTSGSS
modifications: also: 35S-methionine
[4]
  percent decrease in HD1 binding: 20%
